The values below are quoted from earlier work in paper PMC2992174 (Journal of nuclear medicine : official publication, Society …, 2010).

Positions of bridges follow the written chain, without caps; N, C: chain ends. No end group written: not given here.

The test system of one data set is IPA. Conditions: ^111In-labeled peptide, IPA in vivo.

Regarding CGGRLGPFC-NH2 (disulfide 1-9), in the data set with IPA, the background activity is recorded as 0.14 ± 0.02 %ID/g and the target uptake is reported as 0.37 ± 0.06 %ID/g. Fe-TAFC: the “uptake by Candida albicans” value in the data set on Candida albicans is given as “inefficient”.
